# ChEMBL document CHEMBL3745657, “Core chemotype diversification in the HIV-1 entry inhibitor class using field-based bioisosteric replacement” (Bioorg Med Chem Lett, 2016)
# Tests used:
# Format in all cases: functional, organism-based
# [1] = system: Human immunodeficiency virus 1; assay: Antiviral activity against recombinant HIV-1 NL4-3 expressing HIV-1 JR-CSF envelope infected in U87.CD4.CCR5 cells assessed as inhibition of Env mediated cell entry by HIV-1 single round infection assay; details: Human immunodeficiency virus 1, NL4-3, U87/CD4/CCR5
# [2] = system: Human immunodeficiency virus 1; assay: Antiviral activity against recombinant HIV-1 NL4-3 expressing HIV-1 HxBc2 envelope infected in U87.CD4.CXCR4 cells by HIV-1 single round infection assay; details: Human immunodeficiency virus 1, NL4-3, U87.CD4.CXCR4
# [3] = system: Human immunodeficiency virus 1; assay: Antiviral activity against recombinant HIV-1 NL4-3 expressing HIV-1 B41 envelope infected in U87.CD4.CCR5 cells assessed as inhibition of Env mediated cell entry by HIV-1 single round infection assay; details: Human immunodeficiency virus 1, NL4-3, U87/CD4/CCR5
# [4] = system: Human immunodeficiency virus 1; assay: Antiviral activity against recombinant HIV-1 NL4-3 expressing AMLV envelope infected in U87.CD4.CCR5 cells assessed as inhibition of Env mediated cell entry by HIV-1 single round infection assay
Structure (SMILES),IC50 ([1]; read-out: IC50) [nM],IC50 ([1]; read-out: pIC50 (converted)) [nM],IC50 [2] [nM],IC50 [3] [nM],IC50 [4]
COc1cnc(-n2cnc(C)n2)c2[nH]cc(C(=O)C(=O)N3CCC4(CCN(C(=O)c5ccccc5)CC4)C3)c12,13000,12900,36000,3900,Not Active
COc1cnc(-n2cnc(C)n2)c2[nH]cc(C(=O)C(=O)N3CC4CN(C(=O)C5=CCCCC5)CC4C3)c12 (centres undefined),2,–,–,–,–
COc1cnc(-n2cnc(C)n2)c2[nH]cc(C(=O)NCC3CN(C(=O)c4ccccc4)C3)c12,2500,–,3800,3800,Not Active
COc1cnc(-n2cnc(C)n2)c2[nH]cc(C(=O)C(=O)N3CC=C(CNC(=O)c4ccccc4)CC3)c12,224,–,380,350,Not Active
COc1cnc(-n2cnc(C)n2)c2[nH]cc(C(=O)C(=O)N3CC4C=NN(c5ccccc5)C4C3)c12 (centres undefined),8,–,80,6,Not Active
COc1cnc(-n2cnc(C)n2)c2[nH]cc(C(=O)C(=O)NC3C4CN(C(=O)c5ccccc5)CC43)c12 (centres undefined),96,–,69,85,Not Active

# Continued, values first:
IC50 ([1]; read-out: IC50) [nM],IC50 ([1]; read-out: pIC50 (converted)) [nM],IC50 [2] [nM],IC50 [3] [nM],IC50 [4],Structure (SMILES)
1,0.794,–,–,–,COc1cnc(-n2cnc(C)n2)c2[nH]cc(C(=O)C(=O)N3CC4CN(C(=O)c5ccccc5)CC4C3)c12 (centres undefined)
100000,–,–,–,–,COc1cnc(Cl)c2[nH]cc(C(=O)C(=O)N3CC4CN(C(=O)c5ccccc5)CC4C3)c12 (centres undefined)
3,–,9,7,Not Active,COc1cnc(-n2cnc(C)n2)c2[nH]cc(C(=O)C(=O)N3CC(CCC(=O)c4ccccc4)C3)c12
